The values that follow come from US20040236519A1, “Libraries of confomationally constrained peptides, chiral azacrowns, and peptidomimetics and methods of making the same” (priority 2001, published 2004).

The conditions of data set [1]: Giblin et al., cited from earlier work; for binding affinity reduced compared with the disulfide parent: rhenium complex.
Data set [2] deals with Potassium Channel, Ca2+ Act., VI. Briefly: Radioligand binding assay, potassium channel, Ca2+ Act., VI (NOVASCREEN). Conditions: 1.0E−5 (single dose 10 μM); average, N = 2. The method, then:
(§1) Evaluation of M40403 and M40401 in the following radioligand binding assays: potassium channels (ATP-sensitive, Ca2+Act., VI, potassium channel, CA2+Act., VS) and sodium channels (site 1 and site 2). M40403 and M40401 were tested at a single does of 10 µM. The list of an appropriate radioligand used in each ion channel assay is shown in Table 1. […].
(§2) Screening assays can provide valuable information about a compound's biological activity and selectivity. NOVASCREEN Biosciences Corporation of Hanover, Md. was used for these assays. To understand and assess the data, these guidelines are to be used for interpretation of the data presented:
(§3) In most assays, our standard baseline range runs from −20% to +20% inhibition of binding or enzyme activity. […]. NOVASCREEN's assays are designed to test for inhibition of binding or enzyme activity. […]. NOVASCREEN uses a criteria of 50% inhibition (or greater) to qualify a compound as active. Active compounds tested at multiple concentrations can generally be expected to show a dose-dependent response and such follow-up studies are recommended.

For the next data set, the target named is T1, human opioid μ receptor (Homo sapiens, UniProt P35372).
T1 construct: expressed in transfected cells; host or cells: CHO cells, membranes
As to the kind of experiment: Opioid receptor binding, [3H]DAMGO, CHO cell membranes. As to the method: (§4) Evaluation of M40403 binding affinity for opioid receptors in vitro radioligand binding assays. Referring to FIGS. 6-11, receptor binding studies were conducted on human opioid receptors transfected into Chinese hamster ovary (CHO) cells. The μ cell line is maintained in Ham's F-12 medium supplemented with 10% fetal bovine serum and 400 μg/ml GENETICIN (G418 sulfate). The δ cell line is maintained in Ham's F-12 medium supplemented with 10% fetal bovine serum and 500 μg/ml hygromycin B. The k cell line is maintained in Dulbecco's minimal essential medium (DMEM) supplemental with 10% fetal bovine serum, 400 μg/ml GENETICIN (G418 sulfate) and 0.1% penicillin/streptomycin. All cell lines are grown to full confluency, then harvested for membrane preparation. The membrane for binding assays is prepared in 50 mM Tris buffer, pH 7.7. Cells are harvested by scraping the plates with a rubber policeman and then centrifuged at 500×g for 10 minutes. The cell pellet is suspended in buffer A or Tris buffer, homogenized in a Polytron Homogenizer, and centrifuged at 20,000×g for 20 minutes. The cell pellet is washed in buffer A or Tris, centrifuged at 20,000×g for another 20 minutes and finally suspended in a small amount of buffer to determine protein content. Membrane is aliquoted in small vials at a concentration of 6 mg/ml per vial and stored at −70° C. and used as needed.
(§5) Routine binding assays were conducted using [^3H]DAMGO, [^3H]C1-DPDPE, and [^3H]U69,593 to bind to μ, δ and k receptors, respectively. […] Filters are dried overnight before radioactivity levels are determined. Nonspecific binding is determined by using 1.0 μM of the unlabeled counterpart of each radioligand.
(§6) Full characterization of compounds includes analysis of the data for IC50 values and Hill coefficients by using the program PRIMS. Ki values are calculated using the Cheng Prusoff transformation: [formula]
(§7) where L is radioligand concentration and Kd is the binding affinity of the radioligand, as determined previously by saturation analysis. […]

The next data set addresses T2, human opioid k receptor (Homo sapiens, UniProt P41145).
T2 construct: expressed in transfected cells; host or cells: CHO cells, membranes
As to the kind of experiment: Opioid receptor binding, [3H]U69,593, CHO cell membranes. As to conditions: human receptor in CHO cell membranes, Cheng Prusoff. As to the method: Evaluation of M40403 binding affinity for opioid receptors in vitro radioligand binding assays. Referring to FIGS. 6-11, receptor binding studies were conducted on human opioid receptors transfected into Chinese hamster ovary (CHO) cells. The μ cell line is maintained in Ham's F-12 medium supplemented with 10% fetal bovine serum and 400 μg/ml GENETICIN (G418 sulfate). The δ cell line is maintained in Ham's F-12 medium supplemented with 10% fetal bovine serum and 500 μg/ml hygromycin B. The k cell line is maintained in Dulbecco's minimal essential medium (DMEM) supplemental with 10% fetal bovine serum, 400 μg/ml GENETICIN (G418 sulfate) and 0.1% penicillin/streptomycin. […]
as §5, §6, §7

The subject of another data set is Sodium, Site 1. As to the kind of experiment: Radioligand binding assay, sodium channel site 1 (NOVASCREEN). Conditions: 1.0E−5 (single dose 10 μM); average, N = 2. The method, then: as §1, §2, §3
Data set [3] concerns Potassium Channel, ATP-Sensitive. Briefly: Radioligand binding assay, potassium channel, ATP-sensitive (NOVASCREEN). As to conditions: 1.0E−5 (single dose 10 μM); average, N = 2. As to the method: as §1, §2, §3
Another data set deals with T3, human opioid δ receptor (Homo sapiens, UniProt P41143).
T3 construct: expressed in transfected cells; host or cells: CHO cells, membranes
Briefly: Opioid receptor binding, [3H]Cl-DPDPE, CHO cell membranes. As to the method:
as §4, §5, §6, §7

Data set [4] has as its system Sodium, Site 2. Briefly: Radioligand binding assay, sodium channel site 2 (NOVASCREEN). Conditions: 1.0E−5 (single dose 10 μM); average, N = 2. The method, then: as §1, §2, §3
For data set [5], the system named is Potassium Channel, Ca2+ Act., VS. Briefly: Radioligand binding assay, potassium channel, Ca2+ Act., VS (NOVASCREEN). As to conditions: 1.0E−5 (single dose 10 μM); average, N = 2. As to the method: as §1, §2, §3
The target in data set [6] is Potassium Channel, Ca2+ Act., VI. As to conditions: radioligand of the assay; cited from earlier work.
For data set [7], the target named is Potassium Channel, Ca2+ Act., VS. Conditions: cited from earlier work.
The target in data set [8] is Potassium Channel, ATP-Sensitive. Conditions: cited from earlier work.
For data set [9], the target named is Sodium, Site 2. As to conditions: cited from earlier work.
A short description of data set [10]: Competitive metal binding by ESI-MS. Type of data set: physicochemical. The method, then: The ability of these peptides to bind metals was determined by electrospray-ionization mass spectrometry (hereinafter “ESI-MS”). ESI-MS has been successfully used to study a wide variety of non-covalent interactions owing to the gentle nature of the electrospray-ionization process that allows non-covalent complexes to be introduced intact into the gas phase. Thus, ESI-MS provides equilibrium information about the solution and the relative abundance of different peptide-metal binding complexes. The peptide ligands were dissolved in 50% CH3CN or methanol and then diluted to 10 mM solution with 1 mM of CH3COONH4/10% CH3OH solution. Stock solutions (200 uM) of the metal ions (CuSO4, NiSO4, ZnSO4, HgSO4. Co(NO3)2) were made. 40 ul of the ligand solution was mixed with 40 ul of the metal-ion solution, diluted with methanol or 1 mM of CH3COONH4. The solution was treated with KOH to form the complex. Competitive binding was used to study the relative metal-binding properties of each ligand by adding two different metal ions.

Setting [11] is: human receptor in CHO cell membranes, Cheng Prusoff.

T1 sequence (P35372 whole entry): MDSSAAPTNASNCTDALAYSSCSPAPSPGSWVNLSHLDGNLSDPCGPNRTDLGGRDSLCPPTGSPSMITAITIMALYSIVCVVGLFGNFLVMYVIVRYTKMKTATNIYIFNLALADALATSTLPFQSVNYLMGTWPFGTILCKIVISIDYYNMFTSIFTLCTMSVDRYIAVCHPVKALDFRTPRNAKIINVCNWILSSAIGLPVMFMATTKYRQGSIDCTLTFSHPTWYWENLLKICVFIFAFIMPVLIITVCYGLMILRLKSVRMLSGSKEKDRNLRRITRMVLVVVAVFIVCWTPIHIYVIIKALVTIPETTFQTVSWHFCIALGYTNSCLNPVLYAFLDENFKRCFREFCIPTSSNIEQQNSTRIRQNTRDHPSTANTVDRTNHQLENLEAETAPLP
T3 sequence (P41143 whole entry): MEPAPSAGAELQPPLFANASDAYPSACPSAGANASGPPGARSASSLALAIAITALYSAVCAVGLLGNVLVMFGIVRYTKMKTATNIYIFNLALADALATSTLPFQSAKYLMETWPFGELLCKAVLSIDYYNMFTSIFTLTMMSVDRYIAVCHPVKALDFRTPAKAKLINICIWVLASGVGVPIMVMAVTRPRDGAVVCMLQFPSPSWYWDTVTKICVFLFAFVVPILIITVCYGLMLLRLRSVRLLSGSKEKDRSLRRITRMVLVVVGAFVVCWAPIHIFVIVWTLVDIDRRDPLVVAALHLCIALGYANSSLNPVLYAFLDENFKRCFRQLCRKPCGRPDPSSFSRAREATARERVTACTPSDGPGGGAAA
T2 sequence (P41145 whole entry): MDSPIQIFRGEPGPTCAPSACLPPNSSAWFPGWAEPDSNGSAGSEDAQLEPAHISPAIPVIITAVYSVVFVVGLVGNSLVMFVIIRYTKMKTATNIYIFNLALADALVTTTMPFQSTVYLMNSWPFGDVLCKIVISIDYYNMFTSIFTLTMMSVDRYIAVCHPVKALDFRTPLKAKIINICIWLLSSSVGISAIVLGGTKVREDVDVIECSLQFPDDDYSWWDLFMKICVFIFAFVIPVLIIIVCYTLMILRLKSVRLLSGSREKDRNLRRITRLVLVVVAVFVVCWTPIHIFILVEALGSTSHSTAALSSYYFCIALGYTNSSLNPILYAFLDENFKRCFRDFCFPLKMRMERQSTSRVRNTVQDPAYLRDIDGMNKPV

Regarding [Cys^3,4,10, D-Phe7]-α-Msh4-13, in [1], the “binding affinity improved over the previous rhenium complex” value is 25 fold and the “binding affinity reduced compared with the disulfide parent” value was 4 fold.

As for [Cys^4,10, D-Phe7]-α-Msh4-13, in data set [1], the “binding affinity reduced compared with the disulfide parent” value is given as “approximately 100 fold”.

By Ki is commonly meant the equilibrium dissociation constant of an inhibitor or competing ligand from its target. Turning to `[Cl-].[Cl-].[Mn+2].c1cc2nc(c1)CN[C@@H]1CCCC[C@H]1NCCN[C@@H]1CCCC[C@H]1NC2` [M40403], the “Percent Inhibition” value is 30.35% in [2]; −19.68% in the data set on Sodium, Site 1; 4.67% in data set [3]; 93.84% with Sodium, Site 2 [4]; 9.72% in [5]. Also, the IC50 on human opioid μ receptor (Hot Ligand [3H]DAMGO, Jul. 2, 1999 and confirmation Jul. 5, 1999, read-out: IC50, MU Binding) was more than 10000 nM; at human opioid δ receptor (Hot Ligand [3H]DPDPE-CL, Jul. 2, 1999 and confirmation Jul. 5, 1999, read-out: IC50, Delta Binding) it was more than 10000 nM. Further, the Ki at human opioid μ receptor (setting [11]) is more than 10000 nM; on human opioid k receptor it was approximately 240 nM; at human opioid k receptor (listed as 20,636), 240 ± 121 nM; on human opioid δ receptor (setting [11]) it was more than 10000 nM. Moreover, the “affinity for mu receptors” value on human opioid μ receptor (summary in words) was “no significant affinity”. For the same molecule, on human opioid δ receptor (summary in words), the “affinity for delta receptors” value is “no significant affinity”.

As usually defined, the Kd is a measure of binding affinity in units of concentration. Consider [125I]Apamin, for which the Kd in [6] is 0.07 nM.

Regarding Charybdotoxin, in [7] (reference compound, radioligand [125I]Charybdotoxin, read-out: Ki (M) Ref. Cpd.), the Ki was 5.12e-10 M.

Consider `COc1ccc(Cl)cc1C(=O)NCCc1ccc(S(=O)(=O)NC(=O)NC2CCCCC2)cc1` [Glibenclamide], for which the Ki in [8] (reference compound, radioligand [3H]Glibenclamide, read-out: Ki (M) Ref. Cpd.) was 7.85e-10 M.

Take [125I]Charybdotoxin: the Kd in data set [7] (radioligand of the assay) was 0.1 nM.

In the case of `CCN1C[C@]2(COC)[C@H](O)C[C@H](OC)[C@@]34[C@@H]5C[C@@]6(O)[C@H](OC(=O)c7ccccc7)[C@@H]5[C@@](OC(C)=O)([C@@H]([C@H](OC)[C@H]23)[C@@H]14)[C@@H](O)[C@@H]6OC` [Aconitine], on Sodium, Site 2 [9] (reference compound, radioligand [3H]Bactrachotoxin A 20-a-Benzo, read-out: Ki (M) Ref. Cpd.), the Ki was 8.38e-07 M.

As for `COc1ccc(Cl)cc1C(=O)NCCc1ccc(S(=O)(=O)NC(=O)NC2CCCCC2)cc1` [[3H]Glibenclamide], the Kd in data set [8] (radioligand of the assay) was 0.25 nM.

“H-Val-Ψ(CONOH)-Phe-Ala-Pro-Leu-CONOH [compound 14]”: the metal-binding ability entry in data set [10] (among the peptides containing two hydroxymate groups, competitive binding) is given as “strongest metal-binding ability”. Also, the metal-binding specificity entry in data set [10] (competitive binding with two different metal ions) is “Cu(II)>Co(II)>Fe(III)>Cd(II)>Zn(II)>Ni(II)”.

Consider [3H]Bactrachotoxin A 20-a-Benzo, for which the dissociation constant (Kd) on Sodium, Site 2 [9] (radioligand of the assay) was 32 nM.
